According to US9540400B2, “Compounds as diacylglycerol acyltransferase inhibitors” (GlaxoSmithKline Intellectual Property (No. 2) Limited, priority 2011, dated 2017):
pIC50: −log10 of the molar value.

biological target: T1, Human DGAT1 (Homo sapiens, UniProt O75907); test: hDGAT1 lipid extraction (LE) assay, inhibition of triacylglycerol product formation; format: biochemical; settings: human DGAT1 microsomes from Sf9 cells; radiolabelled tridecanoylglycerol extraction
T1 construct: made in house; host or cells: Sf9 insect cells (baculovirus); microsomes
T1 sequence (O75907 1-488): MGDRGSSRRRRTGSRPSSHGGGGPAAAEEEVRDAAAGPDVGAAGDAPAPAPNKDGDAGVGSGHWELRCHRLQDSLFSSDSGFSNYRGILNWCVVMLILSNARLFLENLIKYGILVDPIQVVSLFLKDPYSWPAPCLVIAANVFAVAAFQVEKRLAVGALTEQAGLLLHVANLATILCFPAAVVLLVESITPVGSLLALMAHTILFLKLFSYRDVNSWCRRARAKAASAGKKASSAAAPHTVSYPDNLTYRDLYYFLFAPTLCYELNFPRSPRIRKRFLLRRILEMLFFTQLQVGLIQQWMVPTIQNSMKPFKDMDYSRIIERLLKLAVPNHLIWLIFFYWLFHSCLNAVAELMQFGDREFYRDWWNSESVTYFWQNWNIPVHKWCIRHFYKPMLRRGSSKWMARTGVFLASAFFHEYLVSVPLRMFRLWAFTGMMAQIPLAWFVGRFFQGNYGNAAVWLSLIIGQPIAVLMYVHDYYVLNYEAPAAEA
Protocol: (§1) Human DGAT1 was expressed in Sf9 insect cells using a baculovirus expression system. Microsomes were prepared and used as enzyme for in vitro inhibition testing in either of two formats measuring production of coenzyme A or tridecanoylglycerol product, respectively. All steps were performed at 21-23° C. All data for DGAT1 inhibition by test compounds were collected under conditions where product formation was linear with reaction time.
For inhibition of triacylglycerol product formation, 11 uL reactions were run in white Polyplate-384 (PerkinElmer6007300) starting with a 30 minute pre-reaction incubation of 5 uL of 2.2× enzyme and 1 uL of 100% DMSO containing test compound or control compound, {4-[4-(4-amino-7,7-dimethyl-7H-pyrimido[4,5-b][1,4]oxazin-6-yl)phenyl]cyclohexyl}acetic acid. Some assays were performed with inclusion of didecanoylglycerol in the pre-reaction incubation of test compounds and enzyme. Reactions were initiated after 30 minute pre-reaction incubation via addition of 5 uL of 2.2× substrate. Final reaction conditions consisted of 50 mM HEPES pH 7.5, 2 mM MgCl2, 1 mM CHAPS, 25 uM didecanoylglycerol, 0.5 uM decanoyl-CoA, 0.3 nCi/uL [^14C]-decanoyl-CoA or 0.5 nCi/uL [^3H]-decanoyl-CoA, 0.05-4 ug/mL microsomal protein, and 1% DMSO. Following 60 minute reaction incubation, reactions were stopped with 40 uL of 45% isopropanol and 50 mM sodium carbonate in water and mixed. Extraction of tridecanoylglycerol product was accomplished via addition of 30 uL Microscint-E (Perkin Elmer) and 2 hours of incubation (sealed). Plates were read on a Microbeta Microplate reader. Inhibition was normalized to controls containing DMSO or 10 uM {4-[4-(4-amino-7,7-dimethyl-7H-pyrimido[4,5-b][1,4]oxazin-6-yl)phenyl]cyclohexyl}acetic acid. IC50s were fitted using GraphPad Prism to a sigmoidal dose response.

Compound | pIC50
4-amino-6-(6-fluoro-1-phenyl-1H-indol-5-yl)-5H,6H,7H,8H-pyrimido[5,4-f][1,4]oxazepin-5-one [Example 96] | 8.14
Nc1ncnc2c1C(=O)N(c1cnc3c(ccn3CC(F)F)c1)CCO2 [Example 33, 4-Amino-6-(1-(2,2-difluoroethyl)-1H-pyrrolo[2,3-b]pyridin-5-yl)-7,8-dihydropyrimido[5,4-f][1,4]oxazepin-5(6H)-one] | 7.63
CS(=O)(=O)n1ccc2cc(N3CCOc4ncnc(N)c4C3=O)ccc21 [Example 60, 4-amino-6-(1-methanesulfonyl-1H-indol-5-yl)-5H,6H,7H,8H-pyrimido[5,4-f][1,4]oxazepin-5-one] | 7.83
CCCn1cc(C(=O)C(F)(F)F)c2cc(N3CCOc4ncnc(N)c4C3=O)ccc21 [Example 63, 4-Amino-6-(1-propyl-3-(2,2,2-trifluoroacetyl)-1H-indol-5-yl)-7,8-dihydropyrimido[5,4-f][1,4]oxazepin-5(6H)-one] | 8.64

Results, then the compound that gave them:

pIC50 | Compound
8.06 | CCCn1cc(C(C)(OC)C(F)(F)F)c2cc(N3CCOc4ncnc(N)c4C3=O)ccc21 (centres unmarked) [Example 64, 4-amino-6-[1-propyl-3-(1,1,1-trifluoro-2-methoxypropan-2-yl)-1H-indol-5-yl]-5H,6H,7H,8H-pyrimido[5,4-f][1,4]oxazepin-5-one]
8.41 | Nc1ncnc2c1C(=O)N(c1ccc3c(ccn3-c3ccccc3)c1)CCO2 [Example 65, 4-Amino-6-(1-phenyl-1H-indol-5-yl)-7,8-dihydropyrimido[5,4-f][1,4]oxazepin-5(6H)-one]
8.03 | Nc1ncnc2c1C(=O)N(c1cnc3c(ccn3-c3ccccc3)c1)CCO2 [Example 72, 4-amino-6-{1-phenyl-1H-pyrrolo[2,3-b]pyridin-5-yl}-5H,6H,7H,8H-pyrimido[5,4-f][1,4]oxazepin-5-one]
8.35 | Nc1ncnc2c1C(=O)N(c1ccc3c(ccn3-c3ccc(F)c(F)c3)c1)CCO2 [Example 74, 4-amino-6-[1-(3,4-difluorophenyl)-1H-indol-5-yl]-5H,6H,7H,8H-pyrimido[5,4-f][1,4]oxazepin-5-one]
8.44 | Nc1ncnc2c1C(=O)N(c1ccc3c(ccn3-c3cccc(C(F)(F)F)c3)c1)CCO2 [Example 80, 4-amino-6-{1-[3-(trifluoromethyl)phenyl]-1H-indol-5-yl}-5H,6H,7H,8H-pyrimido[5,4-f][1,4]oxazepin-5-one]
8.68 | Nc1ncnc2c1C(=O)N(c1cnc3c(ccn3-c3cccc(C(F)(F)F)c3)c1)CCO2 [Example 81, 4-amino-6-{1-[3-(trifluoromethyl)phenyl]-1H-pyrrolo[2,3-b]pyridin-5-yl}-5H,6H,7H,8H-pyrimido[5,4-f][1,4]oxazepin-5-one]

biological target: T1, Human DGAT1; test: hDGAT1 fluorescence (CPM) assay, inhibition of CoA product formation; format: biochemical; settings: human DGAT1 microsomes from Sf9 cells
Protocol: as §1
For inhibition of CoA product formation, test compounds were prepared in 100% DMSO, diluted 100-fold into assay buffer, and 10 uL added to 96-well half-area plates (Greiner 675076). An equal volume (10 uL) of 3× enzyme in buffer was added and the components incubated for 30 minutes pre-reaction incubation to allow enzyme and test compounds to attain binding equilibrium. […] Some assays were performed with inclusion of didecanoylglycerol in the pre-reaction incubation of test compound and enzyme. DGAT reactions (30 uL) were initiated upon addition of 10 uL of 3× substrate solution. Final reaction conditions consisted of 20 mM HEPES pH 7.5, 2 mM MgCl2, 1 mM CHAPS, 50 uM didecanoylglycerol, 3 uM decanoyl-CoA, 1 ug/mL microsomal protein, and 1% DMSO. Following a 60 minute reaction incubation, reactions were stopped and CoA product derivatized with 30 uL of buffer containing 10 uM {4-[4-(4-amino-7,7-dimethyl-7H-pyrimido[4,5-b][1,4]oxazin-6-yl)phenyl]cyclohexyl}acetic acid and 50 uM 7-diethylamino-3-(4′-maleimidylphenyl)-4-methylcoumarin (CPM). Fluorescence was read using Envision reader at Ex 405 nm/Em 480 nm about 30 minutes after addition of final solution. Inhibition was normalized to controls containing DMSO or 10 uM {4-[4-(4-amino-7,7-dimethyl-7H-pyrimido[4,5-b][1,4]oxazin-6-yl)phenyl]cyclohexyl}acetic acid. IC50s were fitted using GraphPad Prism to a sigmoidal dose response.

Compound | pIC50
Nc1ncnc2c1C(=O)N(c1ccc3c(c1)CCC(=O)N3CC(=O)O)CCO2 [Example 3, 2-(6-{4-amino-5-oxo-5H,6H,7H,8H-pyrimido[5,4-f][1,4]oxazepin-6-yl}-2-oxo-1,2,3,4-tetrahydroquinolin-1-yl)acetic acid] | 6.43
CN1CCc2cc(N3CCOc4ncnc(N)c4C3=O)ccc2C1=O [Example 6, 6-{4-amino-5-oxo-5H,6H,7H,8H-pyrimido[5,4-f][1,4]oxazepin-6-yl}-2-methyl-1,2,3,4-tetrahydroisoquinolin-1-one] | 7.07
C=CCn1c2ccc(N3CCOc4ncnc(N)c4C3=O)cc2c(=O)n1Cc1ccccc1 [Example 10, 6-(1-Allyl-2-benzyl-3-oxo-2,3-dihydro-1H-indazol-5-yl)-4-amino-7,8-dihydropyrimido[5,4-f][1,4]oxazepin-5(6H)-one] | 7.38
CCCn1[nH]c(=O)c2cc(N3CCOc4ncnc(N)c4C3=O)ccc21 [Example 11, 4-Amino-6-(3-oxo-1-propyl-2,3-dihydro-1H-indazol-5-yl)-7,8-dihydropyrimido[5,4-f][1,4]oxazepin-5(6H)-one] | 8.20
CCCn1ccc2cc(N3CCOc4ncnc(N)c4C3=O)ccc21 [Example 12, 4-Amino-6-(1-propyl-1H-indol-5-yl)-7,8-dihydropyrimido[5,4-f][1,4]oxazepin-5(6H)-one] | 7.79
Nc1ncnc2c1C(=O)N(c1cnc3c(ccn3C3CC3)c1)CCO2 [Example 34, 4-Amino-6-(1-cyclopropyl-1H-pyrrolo[2,3-b]pyridin-5-yl)-7,8-dihydropyrimido[5,4-f][1,4]oxazepin-5(6H)-one] | 7.59
Nc1ncnc2c1C(=O)N(c1cnc3c(ccn3CCO)c1)CCO2 [Example 59, 4-amino-6-[1-(2-hydroxyethyl)-1H-pyrrolo[2,3-b]pyridin-5-yl]-5H,6H,7H,8H-pyrimido[5,4-f][1,4]oxazepin-5-one] | 7.31

Now from value to compound:

pIC50 | Compound
7.37 | Nc1ncnc2c1C(=O)N(c1cnc3c(ccn3-c3ccc(C(F)(F)F)cc3)c1)CCO2 [Example 66, 4-Amino-6-(1-(4-(trifluoromethyl)phenyl)-1H-pyrrolo[2,3-b]pyridin-5-yl)-7,8-dihydropyrimido[5,4-f][1,4]oxazepin-5(6H)-one]
8.55 | Nc1ncnc2c1C(=O)N(c1cnc3c(ccn3-c3cccc(Cl)c3)c1)CCO2 [Example 68, 4-amino-6-[1-(3-chlorophenyl)-1H-pyrrolo[2,3-b]pyridin-5-yl]-5H,6H,7H,8H-pyrimido[5,4-f][1,4]oxazepin-5-one]
8.60 | Nc1ncnc2c1C(=O)N(c1ccc3c(ccn3-c3ccccc3F)c1)CCO2 [Example 76, 4-amino-6-[1-(2-fluorophenyl)-1H-indol-5-yl]-5H,6H,7H,8H-pyrimido[5,4-f][1,4]oxazepin-5-one]
8.14 | Nc1ncnc2c1C(=O)N(c1ccc3c(ccn3-c3ccc(C(F)(F)F)cc3)c1)CCO2 [Example 78, 4-amino-6-{1-[4-(trifluoromethyl)phenyl]-1H-indol-5-yl}-5H,6H,7H,8H-pyrimido[5,4-f][1,4]oxazepin-5-one]
7.69 | Nc1ncnc2c1C(=O)N(c1ccc3c(ccn3-c3nccs3)c1)CCO2 [Example 82, 4-Amino-6-(1-(thiazol-2-yl)-1H-indol-5-yl)-7,8-dihydropyrimido[5,4-f][1,4]oxazepin-5(6H)-one]
7.40 | Nc1ncnc2c1C(=O)N(c1ccc3c(ccn3-c3ccc(C(F)(F)F)nc3)c1)CCO2 [Example 83, 4-Amino-6-(1-(6-(trifluoromethyl)pyridin-3-yl)-1H-indol-5-yl)-7,8-dihydropyrimido[5,4-f][1,4]oxazepin-5(6H)-one]
7.26 | Nc1ncnc2c1C(=O)N(c1ccc3c(ccn3-c3cnccn3)c1)CCO2 [Example 87, 4-amino-6-[1-(pyrazin-2-yl)-1H-indol-5-yl]-5H,6H,7H,8H-pyrimido[5,4-f][1,4]oxazepin-5-one]
6.06 | CC(C)c1cn(-c2ccccc2)c2ccc(N3CCOc4ncnc(N)c4C3=O)cc12 [Example 94, 4-Amino-6-(3-isopropyl-1-phenyl-1H-indol-5-yl)-7,8-dihydropyrimido[5,4-f][1,4]oxazepin-5(6H)-one]
8.00 | CCCn1c(-c2ccccc2)cc2cc(N3CCOc4ncnc(N)c4C3=O)ccc21 [Example 95, 4-Amino-6-(2-phenyl-1-propyl-1H-indol-5-yl)-7,8-dihydropyrimido[5,4-f][1,4]oxazepin-5(6H)-one]
